# In patent publication US20250346575A1, “ISOINDOLINONE DERIVATIVE HAVING GLUTARIMIDE MOTHER NUCLEUS, AND USE THEREOF” (KOREA RESEARCH INSTITUTE OF CHEMICAL TECHNOLOGY, priority 2021, published 2025):
# How the values were obtained:
# Cancer cells (KG-1) = test: Cytotoxicity assay, WST-1, KG-1; assay type: cell-based; conditions: for IC50: Homo sapiens, KG-1 cells, 72 hours, WST-1; for activity (in words): monocyclic heteroaryl R1 and aryl R2 compared to bicyclic heteroaryl R1 (Compounds 8, 9, and 26); for cytotoxic activity against KG-1 and NCI-H1155 cancer cells (in words): R1 bicyclic heteroaryl compared to monocyclic aryl (comparative substance) or heteroaryl (Compounds 37 and 38)
# Experimental: To evaluate the effect of the compounds of the present disclosure on cancer cells, a cytotoxicity assay was conducted as follows.
# Cancer cells (KG-1) were seeded at a concentration of 10,000 cells per well into a 96-well plate. Then, the cells were treated with predetermined concentrations of compounds of the Examples and comparative substances (comparative compounds 1, 2, 3). After 72 hours, the cells were incubated with WST-1 reagent for one hour. Then, absorbance was measured at 450 nm using a spectramax spectrophotometer to assess the degree of cancer cell apoptosis. The IC50 (μM) values were calculated using the measured values with the GraphPad Prism program and the measurements are summarized in Table 1.
# GSPT1 protein = biological target: T1, GSPT1 protein (Homo sapiens, UniProt P15170+Q96SW2); test: Substrate protein degradation activity of CRBN (Western blot); assay type: cell-based; conditions: KG-1 cell lines, 6 hours, FIG. 1
# T1 construct: endogenous in cells; host or cells: KG-1 cells
# Text: Examination was made to determine whether the compounds of the present disclosure bind to cereblon (CRBN) and inhibit the function of CRBN. In this regard, the compounds were investigated for degradation activity for Ikaros (IKZF1) protein (Chamberlain, P. P. et al., 2014) or GSPT1 protein (Matyskiela, M. E. et al., 2016) which CRBN protein degrades when binding to thalidomide and analogs thereof.
# In order to assay the compounds according to the present disclosure for degradation activity for Ikaros (IKZF1) protein or GSPT1 protein, experiments were carried out as follows.
# KG-1 cells were seeded at a density of 5×10^5 cells per well into 12-well plates, and each compound was added at predetermined concentration to the wells. After 6 hours, cell lysates were collected using TBSN buffer. The degradation activity of Ikaros protein was assessed using an antibody against Ikaros protein, and the degradation activity of GSPT1 protein was evaluated using an antibody against GSPT1 protein through Western blot analysis. In this regard, equal amounts of protein were loaded into each well of a 4-15% gradient gel, and after electrophoresis, proteins were transferred to a PVDF membrane. Each protein was then bound with primary antibodies, followed by the attachment of HRP-conjugated secondary antibodies, and developed using an HRP substrate.
# T1 sequence (P15170 whole entry): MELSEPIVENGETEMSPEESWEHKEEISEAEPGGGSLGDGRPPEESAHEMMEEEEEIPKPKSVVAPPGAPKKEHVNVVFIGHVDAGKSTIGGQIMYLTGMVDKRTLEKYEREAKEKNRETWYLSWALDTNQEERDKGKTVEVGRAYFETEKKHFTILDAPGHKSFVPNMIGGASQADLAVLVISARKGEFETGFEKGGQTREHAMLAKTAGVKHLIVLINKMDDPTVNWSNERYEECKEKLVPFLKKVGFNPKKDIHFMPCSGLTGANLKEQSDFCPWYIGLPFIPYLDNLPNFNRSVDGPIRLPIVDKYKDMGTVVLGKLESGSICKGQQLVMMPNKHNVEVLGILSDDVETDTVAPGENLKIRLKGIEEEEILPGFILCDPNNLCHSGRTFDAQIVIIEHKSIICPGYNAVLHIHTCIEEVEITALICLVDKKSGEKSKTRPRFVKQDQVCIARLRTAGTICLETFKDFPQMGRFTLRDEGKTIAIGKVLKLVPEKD
# T1 sequence (Q96SW2 whole entry): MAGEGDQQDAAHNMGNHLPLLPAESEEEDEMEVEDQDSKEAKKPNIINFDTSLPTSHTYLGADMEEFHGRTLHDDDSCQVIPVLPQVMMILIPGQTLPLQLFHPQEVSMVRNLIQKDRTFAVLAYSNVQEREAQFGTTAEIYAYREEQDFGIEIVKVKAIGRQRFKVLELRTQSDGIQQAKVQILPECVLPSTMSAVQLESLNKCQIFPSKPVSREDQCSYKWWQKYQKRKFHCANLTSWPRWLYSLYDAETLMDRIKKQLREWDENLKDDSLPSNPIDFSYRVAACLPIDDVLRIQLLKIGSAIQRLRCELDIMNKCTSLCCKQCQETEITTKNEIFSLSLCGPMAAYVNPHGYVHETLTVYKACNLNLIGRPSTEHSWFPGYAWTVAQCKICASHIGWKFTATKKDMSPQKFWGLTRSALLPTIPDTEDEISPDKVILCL
# T1 sequence (Q16531 whole entry partner): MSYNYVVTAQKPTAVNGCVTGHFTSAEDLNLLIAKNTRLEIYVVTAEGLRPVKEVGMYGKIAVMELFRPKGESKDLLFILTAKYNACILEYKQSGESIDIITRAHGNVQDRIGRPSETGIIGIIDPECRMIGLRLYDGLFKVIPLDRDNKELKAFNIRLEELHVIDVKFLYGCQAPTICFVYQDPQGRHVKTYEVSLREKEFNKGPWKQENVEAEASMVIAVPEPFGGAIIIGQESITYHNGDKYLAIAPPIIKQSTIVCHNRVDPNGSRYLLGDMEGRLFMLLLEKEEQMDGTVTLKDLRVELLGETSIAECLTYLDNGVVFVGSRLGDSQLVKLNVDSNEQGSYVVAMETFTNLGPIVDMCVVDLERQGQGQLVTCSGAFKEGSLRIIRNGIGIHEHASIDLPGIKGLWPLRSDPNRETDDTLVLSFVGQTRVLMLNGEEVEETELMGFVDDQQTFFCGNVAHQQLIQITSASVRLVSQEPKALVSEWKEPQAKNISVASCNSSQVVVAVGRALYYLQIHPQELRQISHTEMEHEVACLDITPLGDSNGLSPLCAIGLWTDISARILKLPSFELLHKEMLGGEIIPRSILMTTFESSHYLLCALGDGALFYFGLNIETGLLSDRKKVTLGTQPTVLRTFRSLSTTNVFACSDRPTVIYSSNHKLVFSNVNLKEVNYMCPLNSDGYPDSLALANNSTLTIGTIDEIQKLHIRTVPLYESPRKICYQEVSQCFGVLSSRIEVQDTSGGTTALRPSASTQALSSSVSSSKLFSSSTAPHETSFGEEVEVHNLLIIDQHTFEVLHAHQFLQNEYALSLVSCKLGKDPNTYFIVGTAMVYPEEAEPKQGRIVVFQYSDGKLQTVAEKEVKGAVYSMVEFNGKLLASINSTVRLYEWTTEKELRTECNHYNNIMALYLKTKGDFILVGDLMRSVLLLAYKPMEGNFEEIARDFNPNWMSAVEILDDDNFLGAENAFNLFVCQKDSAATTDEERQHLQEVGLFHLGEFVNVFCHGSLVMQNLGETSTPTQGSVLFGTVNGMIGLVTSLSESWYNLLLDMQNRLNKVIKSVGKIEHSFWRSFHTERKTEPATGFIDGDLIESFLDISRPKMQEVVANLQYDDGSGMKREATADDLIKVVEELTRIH
SMILES,IC50 (Cancer cells (KG-1)),further results
"O=C1CCC(N2Cc3cc(CNC(=O)C4(c5ccccc5)CCCC4)ccc3C2=O)C(=O)N1 (stereo not shown) [Compound 54, N-((2-(2,6-Dioxopiperidin-3-yl)-1-oxoisoindolin-5-yl)methyl)-1-phenylcyclopentane-1-carboxamide]",10 to 50 µM,–
"O=C1CCC(N2Cc3cc(CNC(=O)c4cc(-c5ccc(Cl)cc5)ccn4)ccc3C2=O)C(=O)N1 (stereo not shown) [Compound 18, 4-(4-chlorophenyl)-N-((2-(2,6-dioxopiperidin-3-yl)-1-oxoisoindolin-5-yl)methyl)picolinamide]",0.0001 to 0.01 µM,–
"Cn1nc(C(=O)NCc2ccc3c(c2)CN(C2CCC(=O)NC2=O)C3=O)cc1-c1ccccc1 (stereo not shown) [Compound 23, N-((2-(2,6-Dioxopiperidin-3-yl)-1-oxoisoindolin-5-yl)methyl)-1-methyl-5-phenyl-1H-pyrazole-3-carboxamide]",0.0001 to 0.01 µM,activity (in words) (Cancer cells (KG-1)): significantly more potent activity
Cc1c(C(=O)NCc2ccc3c(c2)CN(C2CCC(=O)NC2=O)C3=O)nn(Cc2ccc(F)cc2)c1-c1cccc(Cl)c1 (stereo not shown) [Compound 43],0.0001 to 0.01 µM,–
"O=C1CCC(N2Cc3cc(CNC(=O)c4cn(-c5cccc(Cl)c5)nn4)ccc3C2=O)C(=O)N1 (stereo not shown) [Compound 15, 1-(3-chlorophenyl)-N-((2-(2,6-dioxopiperidin-3-yl)-1-oxoisoindolin-5-yl)methyl)-1H-1,2,3-triazole-4-carboxamide]",0.0001 to 0.01 µM,–
"O=C1CCC(N2Cc3cc(CNC(=O)c4noc5cc(Cl)ccc45)ccc3C2=O)C(=O)N1 (stereo not shown) [Compound 10, 6-Chloro-N-((2-(2,6-dioxopiperidin-3-yl)-1-oxoisoindolin-5-yl)methyl)benzo[d]isoxazole-3-carboxamide]",0.0001 to 0.01 µM,degradation of GSPT1 protein (GSPT1 protein): selectively promote the degradation of GSPT1 protein; cytotoxic activity against KG-1 and NCI-H1155 cancer cells (in words) (Cancer cells (KG-1)): more potent cytotoxic activity
"Cc1ccnc(C(=O)NCc2ccc3c(c2)CN(C2CCC(=O)NC2=O)C3=O)c1 (stereo not shown) [Compound 31, N-((2-(2,6-Dioxopiperidin-3-yl)-1-oxoisoindolin-5-yl)methyl)-4-methylpicolinamide]",10 to 50 µM,–
"Cn1cc(Br)cc1C(=O)NCc1ccc2c(c1)CN(C1CCC(=O)NC1=O)C2=O (stereo not shown) [Compound 38, 4-Bromo-N-((2-(2,6-dioxopiperidin-3-yl)-1-oxoisoindolin-5-yl)methyl)-1-methyl-1H-pyrrole-2-carboxamide]",1 to 10 µM,–
"O=C1CCC(N2Cc3cc(CNC(=O)c4c[nH]c5ccc(Cl)cc45)ccc3C2=O)C(=O)N1 (stereo not shown) [Compound 7, 5-Chloro-N-((2-(2,6-dioxopiperidin-3-yl)-1-oxoisoindolin-5-yl)methyl)-1H-indole-3-carboxamide]",0.01 to 1 µM,cytotoxic activity against KG-1 and NCI-H1155 cancer cells (in words) (Cancer cells (KG-1)): more potent cytotoxic activity
"Cc1c(C(=O)NCc2ccc3c(c2)CN(C2CCC(=O)NC2=O)C3=O)nn(Cc2ccccc2)c1-c1cccc(Cl)c1 (stereo not shown) [Compound 21, 1-Benzyl-5-(3-chlorophenyl)-N-((2-(2,6-dioxopiperidin-3-yl)-1-oxoisoindolin-5-yl)methyl)-4-methyl-1H-pyrazole-3-carboxamide]",0.0001 to 0.01 µM,–
"O=C1CCC(N2Cc3cc(CNC(=O)c4n[nH]c5ccccc45)ccc3C2=O)C(=O)N1 (stereo not shown) [Compound 34, N-((2-(2,6-Dioxopiperidin-3-yl)-1-oxoisoindolin-5-yl)methyl)-1H-indazole-3-carboxamide]",0.01 to 1 µM,–
"O=C1CCC(N2Cc3cc(CNC(=O)c4n[nH]c5ccc(Cl)cc45)ccc3C2=O)C(=O)N1 (stereo not shown) [Compound 8, 5-Chloro-N-((2-(2,6-dioxopiperidin-3-yl)-1-oxoisoindolin-5-yl)methyl)-1H-indazole-3-carboxamide]",0.01 to 1 µM,–
"Cc1c(C(=O)NCc2ccc3c(c2)CN(C2CCC(=O)NC2=O)C3=O)nn(-c2ccccc2)c1-c1cccc(Cl)c1 (stereo not shown) [Compound 42, 5-(3-chlorophenyl)-N-((2-(2,6-dioxopiperidin-3-yl)-1-oxoisoindolin-5-yl)methyl)-4-methyl-1-phenyl-1H-pyrazole-3-carboxamide]",0.0001 to 0.01 µM,–
"O=C1CCC(N2Cc3cc(CNC(=O)c4nc5ccc(Cl)cc5s4)ccc3C2=O)C(=O)N1 (stereo not shown) [Compound 26, 6-Chloro-N-((2-(2,6-dioxopiperidin-3-yl)-1-oxoisoindolin-5-yl)methyl)benzo[d]thiazole-2-carboxamide]",0.01 to 1 µM,–
"O=C1CCC(N2Cc3cc(CNC(=O)c4cc5ccc(Cl)cc5[nH]4)ccc3C2=O)C(=O)N1 (stereo not shown) [Compound 9, 6-chloro-N-((2-(2,6-dioxopiperidin-3-yl)-1-oxoisoindolin-5-yl)methyl)-1H-indole-2-carboxamide]",0.01 to 1 µM,–
"O=C1CCC(N2Cc3cc(CNC(=O)c4cc(-c5cc(Cl)ccc5Cl)[nH]n4)ccc3C2=O)C(=O)N1 (stereo not shown) [Compound 28, 5-(2,5-Dichlorophenyl)-N-((2-(2,6-dioxopiperidin-3-yl)-1-oxoisoindolin-5-yl)methyl)-1H-pyrazole-3-carboxamide]",0.0001 to 0.01 µM,–
"Cn1cc(-c2cccc(Cl)c2)cc1C(=O)NCc1ccc2c(c1)CN(C1CCC(=O)NC1=O)C2=O (stereo not shown) [Compound 40, 4-(3-Chlorophenyl)-N-((2-(2,6-dioxopiperidin-3-yl)-1-oxoisoindolin-5-yl)methyl)-1-methyl-1H-pyrrole-2-carboxamide]",0.0001 to 0.01 µM,activity (in words) (Cancer cells (KG-1)): significantly more potent activity
"O=C1CCC(N2Cc3cc(CNC(=O)c4ccccc4-c4ccccc4)ccc3C2=O)C(=O)N1 (stereo not shown) [Compound 52, N-((2-(2,6-Dioxopiperidin-3-yl)-1-oxoisoindolin-5-yl)methyl)-[1,1′-biphenyl]-2-carboxamide]",10 to 50 µM,–
"O=C1CCC(N2Cc3cc(CNC(=O)c4cc(-c5ccccc5)c(Cl)cn4)ccc3C2=O)C(=O)N1 (stereo not shown) [Compound 46, 5-Chloro-N-((2-(2,6-dioxopiperidin-3-yl)-1-oxoisoindolin-5-yl)methyl)-4-phenylpicolinamide]",0.0001 to 0.01 µM,–
"O=C1CCC(N2Cc3cc(CNC(=O)c4cc(-c5cccc(Cl)c5)on4)ccc3C2=O)C(=O)N1 (stereo not shown) [Compound 19, 5-(3-Chlorophenyl)-N-((2-(2,6-dioxopiperidin-3-yl)-1-oxoisoindolin-5-yl)methyl)isoxazole-3-carboxamide]",0.0001 to 0.01 µM,–
